According to patent US12006328B2, “Thieno[2,3-d]pyrimidin-4-one derivatives as NMDAR modulators and uses related thereto” (Emory University, priority 2014, dated 2024):

Assays:
Assay type in all cases: cell-based
[1] = target: GluN2D-containing NMDA receptors (Homo sapiens, UniProt O15399); test: Two-electrode voltage-clamp recordings from Xenopus laevis oocytes, GluN2D; settings: for I10 μM/ICONTROL (mean ± SEM, %) Glu N2D: 10 μM test compound with glutamate 100 μM and glycine 30 μM, Tables 1-5; for I10 μM/ICONTROL (mean ± SEM, %) Glu N2D / maximal potentiation Glu N2D: percent of response without compound; for IC50 / EC50: glutamate 100 μM, glycine 30 μM, Hill fit; for IC50: read-out: IC50 Glu N2D; for EC50: read-out: EC50 Glu N2D
Procedure: (§1) Xenopus laevis oocytes were injected with cRNA encoding the NMDA receptor subunits. Two to seven days after injection, two-electrode voltage-clamp recordings were performed. Extracellular solutions were made from a solutions containing (in mM) 90 NaCl, 3 KCl, 10 HEPES, 0.5 BaCl2, 0.01 EDTA (pH 7.4 with NaOH). Voltage and current electrodes were filled with 0.3 M and 3.0 M KCl, respectively.
(§2) Potency was determined by adding increasing concentrations of test compound to saturating concentrations of glutamate (100 μM) and glycine (30 μM), and the response amplitude measured. The response in the presence of each concentration of test compound plus agonists was expressed as a percent of the response in the absence of test compound.

[2] = target: GluN2B-containing NMDA receptors (Homo sapiens, UniProt Q13224); test: Two-electrode voltage-clamp recordings from Xenopus laevis oocytes, GluN2B; settings: for I10 μM/ICONTROL (mean ± SEM, %) Glu N2B: 10 μM test compound with glutamate 100 μM and glycine 30 μM, Tables 1-5; for I10 μM/ICONTROL (mean ± SEM, %) Glu N2B / maximal potentiation Glu N2B: percent of response without compound; for IC50 / EC50: glutamate 100 μM, glycine 30 μM, Hill fit; for IC50: read-out: IC50 Glu N2B; for EC50: read-out: EC50 Glu N2B
Procedure: as §1, §2

[3] = target: GluN2C-containing NMDA receptors (Homo sapiens, UniProt Q14957); test: Two-electrode voltage-clamp recordings from Xenopus laevis oocytes, GluN2C; settings: for I10 μM/ICONTROL (mean ± SEM, %) Glu N2C: 10 μM test compound with glutamate 100 μM and glycine 30 μM, Tables 1-5; for I10 μM/ICONTROL (mean ± SEM, %) Glu N2C / maximal potentiation Glu N2C: percent of response without compound; for IC50 / EC50: glutamate 100 μM, glycine 30 μM, Hill fit; for IC50: read-out: IC50 Glu N2C; for EC50: read-out: EC50 Glu N2C
Procedure: as §1, §2

[4] = Table 2, in brackets below IC50
[5] = Table 1, in brackets after EC50

GluN2B-containing NMDA receptors, sequence (Q13224 27-1484, other chains not shown): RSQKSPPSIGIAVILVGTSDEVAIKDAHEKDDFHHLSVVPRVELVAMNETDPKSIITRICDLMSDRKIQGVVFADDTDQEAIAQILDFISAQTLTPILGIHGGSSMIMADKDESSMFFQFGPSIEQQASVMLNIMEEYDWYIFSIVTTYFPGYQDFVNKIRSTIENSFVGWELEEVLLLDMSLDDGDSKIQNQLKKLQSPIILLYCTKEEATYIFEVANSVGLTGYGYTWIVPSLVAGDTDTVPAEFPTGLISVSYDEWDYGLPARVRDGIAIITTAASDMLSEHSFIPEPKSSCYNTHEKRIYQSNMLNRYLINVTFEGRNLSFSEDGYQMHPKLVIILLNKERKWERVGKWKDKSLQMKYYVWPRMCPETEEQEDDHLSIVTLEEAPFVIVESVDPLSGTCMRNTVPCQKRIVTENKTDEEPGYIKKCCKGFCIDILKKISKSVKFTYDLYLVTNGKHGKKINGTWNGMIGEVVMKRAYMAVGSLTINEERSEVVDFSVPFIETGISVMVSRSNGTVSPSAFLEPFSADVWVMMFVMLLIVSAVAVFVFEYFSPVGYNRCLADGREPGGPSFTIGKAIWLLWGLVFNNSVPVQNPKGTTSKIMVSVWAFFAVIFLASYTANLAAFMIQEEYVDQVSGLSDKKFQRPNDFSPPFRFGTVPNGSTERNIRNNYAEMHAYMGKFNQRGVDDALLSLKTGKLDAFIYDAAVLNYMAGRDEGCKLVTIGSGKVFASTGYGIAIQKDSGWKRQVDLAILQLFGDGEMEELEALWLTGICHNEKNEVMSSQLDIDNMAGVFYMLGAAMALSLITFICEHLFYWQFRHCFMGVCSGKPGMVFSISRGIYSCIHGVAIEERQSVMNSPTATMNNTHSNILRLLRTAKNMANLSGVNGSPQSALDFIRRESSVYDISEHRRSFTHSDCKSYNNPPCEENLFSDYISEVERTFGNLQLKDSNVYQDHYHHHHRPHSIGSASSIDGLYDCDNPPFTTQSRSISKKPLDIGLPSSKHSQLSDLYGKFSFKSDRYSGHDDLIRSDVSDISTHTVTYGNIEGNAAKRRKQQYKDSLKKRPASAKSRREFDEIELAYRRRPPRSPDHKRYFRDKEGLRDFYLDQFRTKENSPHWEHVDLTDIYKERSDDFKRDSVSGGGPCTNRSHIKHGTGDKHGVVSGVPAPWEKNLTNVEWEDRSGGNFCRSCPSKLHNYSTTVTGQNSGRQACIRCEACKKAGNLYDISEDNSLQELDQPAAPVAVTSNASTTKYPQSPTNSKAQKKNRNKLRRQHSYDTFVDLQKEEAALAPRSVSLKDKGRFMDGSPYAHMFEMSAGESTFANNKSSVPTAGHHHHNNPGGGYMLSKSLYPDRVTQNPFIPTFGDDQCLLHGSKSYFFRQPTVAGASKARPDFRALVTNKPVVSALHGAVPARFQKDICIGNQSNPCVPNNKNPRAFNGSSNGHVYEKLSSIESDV
GluN2D-containing NMDA receptors, sequence (O15399 28-1336, other chains not shown): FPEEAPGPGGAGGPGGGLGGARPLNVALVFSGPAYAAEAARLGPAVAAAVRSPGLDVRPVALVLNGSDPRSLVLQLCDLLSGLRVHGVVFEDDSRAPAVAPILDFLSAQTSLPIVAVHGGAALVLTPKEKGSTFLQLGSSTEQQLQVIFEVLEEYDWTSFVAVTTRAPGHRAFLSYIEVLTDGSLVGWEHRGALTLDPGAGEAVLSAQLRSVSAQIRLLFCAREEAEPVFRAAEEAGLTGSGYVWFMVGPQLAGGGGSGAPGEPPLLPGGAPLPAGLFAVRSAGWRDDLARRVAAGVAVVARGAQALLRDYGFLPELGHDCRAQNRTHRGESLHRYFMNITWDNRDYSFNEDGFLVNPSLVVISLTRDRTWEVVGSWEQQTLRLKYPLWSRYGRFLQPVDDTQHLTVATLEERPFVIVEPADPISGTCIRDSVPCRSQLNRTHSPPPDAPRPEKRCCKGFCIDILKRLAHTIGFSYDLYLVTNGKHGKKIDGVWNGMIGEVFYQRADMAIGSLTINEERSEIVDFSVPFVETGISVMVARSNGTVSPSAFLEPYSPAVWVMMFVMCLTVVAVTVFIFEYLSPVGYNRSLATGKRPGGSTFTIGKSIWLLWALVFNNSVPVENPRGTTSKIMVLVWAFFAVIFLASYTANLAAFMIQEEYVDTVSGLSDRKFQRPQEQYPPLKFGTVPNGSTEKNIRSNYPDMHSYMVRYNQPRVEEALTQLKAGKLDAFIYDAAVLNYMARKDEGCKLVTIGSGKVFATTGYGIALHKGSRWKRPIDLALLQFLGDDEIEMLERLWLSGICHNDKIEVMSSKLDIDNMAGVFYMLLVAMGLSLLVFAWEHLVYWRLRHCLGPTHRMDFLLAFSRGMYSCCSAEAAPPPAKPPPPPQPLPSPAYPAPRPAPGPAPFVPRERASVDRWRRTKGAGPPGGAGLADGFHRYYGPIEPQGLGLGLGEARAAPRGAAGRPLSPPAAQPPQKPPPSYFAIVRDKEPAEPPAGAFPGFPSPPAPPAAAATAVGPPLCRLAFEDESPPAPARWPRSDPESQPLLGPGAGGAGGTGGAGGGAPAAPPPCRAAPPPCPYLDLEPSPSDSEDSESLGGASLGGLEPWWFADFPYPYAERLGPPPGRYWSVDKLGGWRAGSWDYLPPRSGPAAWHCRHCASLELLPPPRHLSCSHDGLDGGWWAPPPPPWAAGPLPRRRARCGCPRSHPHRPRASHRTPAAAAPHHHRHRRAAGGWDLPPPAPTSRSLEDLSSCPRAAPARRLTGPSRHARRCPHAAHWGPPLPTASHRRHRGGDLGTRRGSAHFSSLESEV
GluN2C-containing NMDA receptors, sequence (Q14957 20-1233, other chains not shown): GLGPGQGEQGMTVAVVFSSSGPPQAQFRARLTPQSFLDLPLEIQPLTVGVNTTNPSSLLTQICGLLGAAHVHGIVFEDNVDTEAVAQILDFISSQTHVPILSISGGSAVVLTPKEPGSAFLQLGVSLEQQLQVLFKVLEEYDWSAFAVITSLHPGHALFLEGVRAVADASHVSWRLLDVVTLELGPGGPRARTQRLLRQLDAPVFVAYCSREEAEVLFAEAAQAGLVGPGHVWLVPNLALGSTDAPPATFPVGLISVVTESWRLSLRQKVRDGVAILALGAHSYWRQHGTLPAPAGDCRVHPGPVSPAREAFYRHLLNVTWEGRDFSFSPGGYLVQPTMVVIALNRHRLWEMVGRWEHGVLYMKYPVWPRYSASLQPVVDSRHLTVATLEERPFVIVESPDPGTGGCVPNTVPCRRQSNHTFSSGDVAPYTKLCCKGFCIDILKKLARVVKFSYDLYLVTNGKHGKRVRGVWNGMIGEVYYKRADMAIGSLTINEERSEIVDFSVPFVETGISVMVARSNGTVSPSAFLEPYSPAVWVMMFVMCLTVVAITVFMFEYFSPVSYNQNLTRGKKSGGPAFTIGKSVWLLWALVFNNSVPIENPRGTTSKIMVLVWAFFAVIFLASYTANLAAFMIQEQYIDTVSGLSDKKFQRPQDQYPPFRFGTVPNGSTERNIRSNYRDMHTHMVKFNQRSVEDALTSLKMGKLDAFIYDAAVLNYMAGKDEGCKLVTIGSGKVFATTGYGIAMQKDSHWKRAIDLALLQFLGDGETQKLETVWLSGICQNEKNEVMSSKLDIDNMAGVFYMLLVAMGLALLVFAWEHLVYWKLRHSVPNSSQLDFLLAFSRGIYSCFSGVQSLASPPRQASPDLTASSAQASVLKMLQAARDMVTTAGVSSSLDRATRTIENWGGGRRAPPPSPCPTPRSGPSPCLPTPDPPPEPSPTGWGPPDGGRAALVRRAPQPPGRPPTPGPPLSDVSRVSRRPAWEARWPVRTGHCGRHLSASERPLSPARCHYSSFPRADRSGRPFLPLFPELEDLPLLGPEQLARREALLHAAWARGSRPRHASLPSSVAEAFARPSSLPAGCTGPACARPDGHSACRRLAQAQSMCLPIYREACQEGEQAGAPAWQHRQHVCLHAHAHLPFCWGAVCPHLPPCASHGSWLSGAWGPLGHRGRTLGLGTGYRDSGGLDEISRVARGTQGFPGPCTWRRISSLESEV

Row | Structure (SMILES) | I10 μM/ICONTROL (mean ± SEM, %) Glu N2D [1] | I10 μM/ICONTROL (mean ± SEM, %) Glu N2B [2] | I10 μM/ICONTROL (mean ± SEM, %) Glu N2C [3] | other results
1 | Cc1sc2ncn(CC(=O)c3cccs3)c(=O)c2c1-c1cccc(I)c1 [1 / 3-I—Ph / Me / 2-thiophene] | 177 ± 7.0% | 129 ± 4.5% | 180 ± 10.7% | IC50 ([1]; Table 2): 11 µM; maximal potentiation Glu N2D [1, 4]: (262) %; IC50 ([2]; Table 2): 7.7 µM; maximal potentiation Glu N2B [2, 4]: (147) %; IC50 ([3]; Table 2): 9.3 µM; maximal potentiation Glu N2C [3, 4]: (255) %
2 | COc1cccc(C(=O)Cn2cnc3sc(C)c(-c4cccc(I)c4)c3c2=O)c1 [1 / 3-I—Ph / Me / 3-OMe—Ph] | 99 ± 4.3% | 107 ± 3.0% | 107 ± 4.9% | 
3 | COc1ccc(C(=O)Cn2cnc3sc(C)c(-c4cccc(I)c4)c3c2=O)cc1 [1 / 3-I—Ph / Me / 4-OMe—Ph] | 94 ± 1.1% | 84 ± 5.2% | 94 ± 1.94% | 
4 | Cc1sc2ncn(CC(=O)c3ccccc3)c(=O)c2c1-c1cccc(I)c1 [1 / 3-I—Ph / Me / Ph] | 133 ± 3.1% | 139 ± 3.9% | 161 ± 10.9% | IC50 ([1]; Table 2): 41 µM; maximal potentiation Glu N2D [1, 4]: (305) %; IC50 ([2]; Table 2): 7.9 µM; maximal potentiation Glu N2B [2, 4]: (169) %; IC50 ([3]; Table 2): 15 µM; maximal potentiation Glu N2C [3, 4]: (273) %
5 | Cc1sc2ncn(CC(=O)N(C)C)c(=O)c2c1-c1ccc(Br)cc1 [1 / 4-Br—Ph / Me / —N(Me)2] | 105 ± 1.8% | 92 ± 1.7% | 109 ± 3.1% | 
6 | CCOC(=O)CNC(=O)Cn1cnc2sc(C)c(-c3ccc(Br)cc3)c2c1=O [1 / 4-Br—Ph / Me / —NHCH2COOEt] | 104 ± 0.6% | 96 ± 2.1% | 104 ± 2.5% | 
7 | Cc1sc2ncn(CC(=O)N3CCC[C@H]3C(=O)O)c(=O)c2c1-c1ccc(Cl)cc1 [1 / 4-Cl—Ph / Me / —Nproline (S)] | 97 ± 1.9% | 89 ± 1.7% | 104 ± 2.3% | 
8 | Cc1sc2ncn(CC(=O)N3CCCC3)c(=O)c2c1-c1ccc(Cl)cc1 [1 / 4-Cl—Ph / Me / —Npyrrolidine] |  |  |  | IC50 ([1]; Table 2): 23 µM; maximal potentiation Glu N2D [1, 4]: (381) %; IC50 ([2]; Table 2): 11 µM; maximal potentiation Glu N2B [2, 4]: (223) %; IC50 ([3]; Table 2): 15 µM; maximal potentiation Glu N2C [3, 4]: (347) %
9 | O=C(Cn1cnc2sc3c(c2c1=O)CCCC3)c1ccc(Cl)cc1Cl [2,4-Cl] | 97 ± 1.8% | 91 ± 3.6% | 106 ± 4.4% | 
10 | COc1ccc(C(=O)Cn2cnc3sc4c(c3c2=O)CCCC4)c(OC)c1 [2,4-OMe] | 90 ± 0.7% | 95 ± 1.8% | 94 ± 1.4% | 
11 | Cc1sc2ncn(CC(=O)N3CCCC3)c(=O)c2c1-c1ccccc1C(F)(F)F [2-CF3—Ph / Me] | 94 ± 1.4% | 93 ± 2.0% | 95 ± 2.1% | 
12 | Cc1sc2ncn(CC(=O)N3CCCC3)c(=O)c2c1-c1ccc2c(c1)CCC2 [3,4-(CH2)3—Ph / Me] | 165 ± 3.4% | 176 ± 6.2% | 185 ± 11.4% | EC50 ([1]; Table 1): 48 µM; maximal potentiation Glu N2D [1, 5]: 580%; EC50 ([2]; Table 1): 11.5 µM; maximal potentiation Glu N2B [2, 5]: 275%; EC50 ([3]; Table 1): 26 µM; maximal potentiation Glu N2C [3, 5]: 475%
13 | Cc1sc2ncn(CC(=O)N3CCCC3)c(=O)c2c1-c1ccc(Br)c(Br)c1 [3,4-Br—Ph / Me] | 292 ± 13.7% | 188 ± 9.3% | 281 ± 17.7% | EC50 ([1]; Table 1): 30 µM; maximal potentiation Glu N2D [1, 5]: 1205%; EC50 ([2]; Table 1): 5.2 µM; maximal potentiation Glu N2B [2, 5]: 223%; EC50 ([3]; Table 1): 13 µM; maximal potentiation Glu N2C [3, 5]: 561%
14 | Cc1ccc(-c2c(C)sc3ncn(CC(=O)N4CCCC4)c(=O)c23)cc1C [3,4-Me—Ph / Me] |  |  |  | EC50 ([1]; Table 1): 18 µM; maximal potentiation Glu N2D [1, 5]: 229%; EC50 ([2]; Table 1): 7.9 µM; maximal potentiation Glu N2B [2, 5]: 192%; EC50 ([3]; Table 1): 27 µM; maximal potentiation Glu N2C [3, 5]: 267%
15 | Cc1sc2ncn(CC(=O)N3CCCC3)c(=O)c2c1-c1cc(Br)cc(Br)c1 [3,5-Br—Ph / Me] | 230 ± 13.5% | 156 ± 5.2% | 195 ± 6.9% | EC50 ([1]; Table 1): 3.86 µM; maximal potentiation Glu N2D [1, 5]: 202%; EC50 ([2]; Table 1): 1.08 µM; maximal potentiation Glu N2B [2, 5]: 143%; EC50 ([3]; Table 1): 2.2 µM; maximal potentiation Glu N2C [3, 5]: 195%
16 | Cc1sc2ncn(CC(=O)N3CCCC3)c(=O)c2c1-c1cc(C(F)(F)F)cc(C(F)(F)F)c1 [3,5-CF3—Ph / Me] | 103 ± 1.1% | 101 ± 4.5% | 115 ± 5.5% | 
17 | Cc1sc2ncn(CC(=O)N3CCCC3)c(=O)c2c1-c1cc(F)cc(F)c1 [3,5-F—Ph / Me] | 116 ± 4.4% | 107 ± 2.7% | 114 ± 0.9% | EC50 ([1]; Table 1): 204 µM; maximal potentiation Glu N2D [1, 5]: 748%; EC50 ([2]; Table 1): 96 µM; maximal potentiation Glu N2B [2, 5]: 229%; EC50 ([3]; Table 1): 132 µM; maximal potentiation Glu N2C [3, 5]: 458%
18 | Cc1sc2ncn(CC(=O)N3CCCC3)c(=O)c2c1-c1cc(I)cc(I)c1 [3,5-I—Ph / Me] | 151 ± 6.3% | 152 ± 8.8% | 167 ± 9.6% | EC50 ([1]; Table 1): 32 µM; maximal potentiation Glu N2D [1, 5]: 432%; EC50 ([2]; Table 1): 20 µM; maximal potentiation Glu N2B [2, 5]: 259%; EC50 ([3]; Table 1): 35 µM; maximal potentiation Glu N2C [3, 5]: 493%
19 | Cc1sc2ncn(CC(=O)N3CCCC3)c(=O)c2c1-c1cccc(-n2cncn2)c1 [3-1,2,4 triazolyl-Ph / Me] | 108 ± 6.2% | 110 ± 2.6% | 113 ± 5.8% | EC50 ([1]; Table 1): 108 µM; maximal potentiation Glu N2D [1, 5]: 239%; EC50 ([2]; Table 1): 293 µM; maximal potentiation Glu N2B [2, 5]: 402%; EC50 ([3]; Table 1): 44 µM; maximal potentiation Glu N2C [3, 5]: 308%

Further lines, with some results ahead:

Row | I10 μM/ICONTROL (mean ± SEM, %) Glu N2D [1] | I10 μM/ICONTROL (mean ± SEM, %) Glu N2B [2] | I10 μM/ICONTROL (mean ± SEM, %) Glu N2C [3] | Structure (SMILES) | other results
20 | 89 ± 1.4% | 93 ± 1.2% | 93 ± 1.4% | Cc1sc2ncn(CC(=O)O)c(=O)c2c1-c1cccc(Cl)c1 [1 / 3-Cl—Ph / Me / OH] | 
21 | 89 ± 1.6% | 96 ± 2.6% | 110 ± 5.9% | Cc1sc2ncn(CC(=O)Oc3ccccc3)c(=O)c2c1-c1cccc(Cl)c1 [1 / 3-Cl—Ph / Me / OPh] | 
22 | 90 ± 1.3% | 95 ± 0.9% | 95 ± 2.8% | CCSC(=O)Cn1cnc2sc(C)c(-c3cccc(Cl)c3)c2c1=O [1 / 3-Cl—Ph / Me / SEt] | 
23 | 73 ± 2.6% | 92 ± 4.6% | 87 ± 4.0% | Cc1sc2ncn(CC(=O)SC(C)(C)C)c(=O)c2c1-c1cccc(Cl)c1 [1 / 3-Cl—Ph / Me / StBu] | 
24 | 94 ± 4.3% | 87 ± 3.9% | 101 ± 6.8% | Cc1sc2ncn(CC(=O)OC(C)(C)C)c(=O)c2c1-c1cccc(I)c1 [1 / 3-I—Ph / Me / OtBu] | 
25 | 93 ± 1.8% | 87 ± 1.3% | 105 ± 3.7% | Cc1sc2ncn(CC(=O)NCC(=O)O)c(=O)c2c1-c1ccc(Cl)cc1 [1 / 4-Cl—Ph / Me / —NHCH2COOH] | 
26 | 97 ± 1.6% | 107 ± 2.3% | 91 ± 2.5% | CCOC(=O)CCn1cnc2sc(C)c(-c3cccc(Cl)c3)c2c1=O [2 / 3-Cl—Ph / Me / OEt] | 
27 | 97 ± 1.1% | 99 ± 0.6% | 89 ± 6.2% | Cc1sc2ncn(CCC(=O)O)c(=O)c2c1-c1cccc(Cl)c1 [2 / 3-Cl—Ph / Me / OH] | 
28 | 88 ± 2.4% | 104 ± 3.6% | 91 ± 1.1% | Cc1sc2ncn(CCC(=O)Oc3ccccc3)c(=O)c2c1-c1cccc(Cl)c1 [2 / 3-Cl—Ph / Me / OPh] | 
29 | 90 ± 1.7% | 95 ± 1.7% | 99 ± 5.0% | Cc1sc2ncn(CCC(=O)N3CCCC3)c(=O)c2c1-c1cccc(Cl)c1 [2 / 3-Cl—Ph / Me / —Npyrrolidine] | 
